Experimental data as given in ChEMBL document CHEMBL5150077, “Identification of TUL01101: A Novel Potent and Selective JAK1 Inhibitor for the Treatment of Rheumatoid Arthritis” (J Med Chem, 2022).
pIC50: −log10 of the molar value.

Columns and labels:
Homo sapiens [1] = organism: Homo sapiens; test: Selectivity index, ratio of IC50 for inhibition of recombinant human JAK2 to IC50 for inhibition of recombinant human JAK1
Homo sapiens [2] = organism: Homo sapiens; test: Selectivity index, ratio of IC50 for inhibition of recombinant human TYK2 to IC50 for inhibition of recombinant human JAK1
[3] = target: Tyrosine-protein kinase JAK1 (Homo sapiens, UniProt P23458); test: Inhibition of recombinant human JAK1 using MGEEPLYWSFPAKKK as substrate incubated for 40 mins in presence of Mg/ATP mixture by [gamma p33]-ATP based scintillation counting method
[4] = target: Tyrosine-protein kinase JAK2 (Homo sapiens, UniProt O60674); test: Inhibition of recombinant human JAK2 using KTFCGTPEYLAPEVRREPRILSEEEQEMFRDFDYIADWC as substrate incubated for 40 mins in presence of Mg/ATP mixture by [gamma p33]-ATP based scintillation counting method
[5] = target: T1, Tyrosine-protein kinase JAK3 (Homo sapiens, UniProt P52333); test: Inhibition of recombinant human JAK3 using GGEEEEYFELVKKKK as substrate incubated for 40 mins in presence of Mg/ATP mixture by [gamma p33]-ATP based scintillation counting method
T1 sequence (P52333 whole entry): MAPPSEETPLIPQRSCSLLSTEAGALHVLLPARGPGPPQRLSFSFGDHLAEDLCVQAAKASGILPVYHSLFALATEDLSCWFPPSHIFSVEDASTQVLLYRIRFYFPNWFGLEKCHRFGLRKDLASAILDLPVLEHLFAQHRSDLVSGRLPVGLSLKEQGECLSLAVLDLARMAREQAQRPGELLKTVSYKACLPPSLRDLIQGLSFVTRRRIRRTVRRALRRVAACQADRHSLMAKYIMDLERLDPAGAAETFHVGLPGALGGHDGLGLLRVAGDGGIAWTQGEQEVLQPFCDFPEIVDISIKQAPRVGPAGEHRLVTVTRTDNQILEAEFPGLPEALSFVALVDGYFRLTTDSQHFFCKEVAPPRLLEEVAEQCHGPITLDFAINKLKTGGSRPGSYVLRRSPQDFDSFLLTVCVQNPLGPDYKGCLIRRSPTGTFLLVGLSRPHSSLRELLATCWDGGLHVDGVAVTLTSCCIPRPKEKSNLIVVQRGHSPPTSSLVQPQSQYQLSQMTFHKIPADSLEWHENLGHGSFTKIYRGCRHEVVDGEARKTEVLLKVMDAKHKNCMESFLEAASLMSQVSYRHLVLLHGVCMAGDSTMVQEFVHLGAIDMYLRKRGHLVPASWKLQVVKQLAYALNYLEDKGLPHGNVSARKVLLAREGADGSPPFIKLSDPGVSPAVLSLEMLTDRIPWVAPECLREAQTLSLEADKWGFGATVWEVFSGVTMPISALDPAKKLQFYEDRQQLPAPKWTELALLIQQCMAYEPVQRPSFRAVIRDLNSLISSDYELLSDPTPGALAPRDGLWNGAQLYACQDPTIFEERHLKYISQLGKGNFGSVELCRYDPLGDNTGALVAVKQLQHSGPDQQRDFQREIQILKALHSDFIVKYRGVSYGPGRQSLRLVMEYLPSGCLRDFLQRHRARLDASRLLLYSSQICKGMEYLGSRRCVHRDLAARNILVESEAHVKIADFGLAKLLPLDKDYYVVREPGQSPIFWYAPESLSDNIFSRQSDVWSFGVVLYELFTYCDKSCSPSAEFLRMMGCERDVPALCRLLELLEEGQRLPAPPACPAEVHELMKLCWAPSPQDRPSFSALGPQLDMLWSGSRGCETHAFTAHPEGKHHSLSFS

[6] = target: Non-receptor tyrosine-protein kinase TYK2 (Homo sapiens, UniProt P29597); test: Inhibition of recombinant human TYK2 using GGMEDIYFEFMGGKKK as substrate incubated for 40 mins in presence of Mg/ATP mixture by [gamma p33]-ATP based scintillation counting method
Chain of Non-receptor tyrosine-protein kinase TYK2 (P29597 whole entry): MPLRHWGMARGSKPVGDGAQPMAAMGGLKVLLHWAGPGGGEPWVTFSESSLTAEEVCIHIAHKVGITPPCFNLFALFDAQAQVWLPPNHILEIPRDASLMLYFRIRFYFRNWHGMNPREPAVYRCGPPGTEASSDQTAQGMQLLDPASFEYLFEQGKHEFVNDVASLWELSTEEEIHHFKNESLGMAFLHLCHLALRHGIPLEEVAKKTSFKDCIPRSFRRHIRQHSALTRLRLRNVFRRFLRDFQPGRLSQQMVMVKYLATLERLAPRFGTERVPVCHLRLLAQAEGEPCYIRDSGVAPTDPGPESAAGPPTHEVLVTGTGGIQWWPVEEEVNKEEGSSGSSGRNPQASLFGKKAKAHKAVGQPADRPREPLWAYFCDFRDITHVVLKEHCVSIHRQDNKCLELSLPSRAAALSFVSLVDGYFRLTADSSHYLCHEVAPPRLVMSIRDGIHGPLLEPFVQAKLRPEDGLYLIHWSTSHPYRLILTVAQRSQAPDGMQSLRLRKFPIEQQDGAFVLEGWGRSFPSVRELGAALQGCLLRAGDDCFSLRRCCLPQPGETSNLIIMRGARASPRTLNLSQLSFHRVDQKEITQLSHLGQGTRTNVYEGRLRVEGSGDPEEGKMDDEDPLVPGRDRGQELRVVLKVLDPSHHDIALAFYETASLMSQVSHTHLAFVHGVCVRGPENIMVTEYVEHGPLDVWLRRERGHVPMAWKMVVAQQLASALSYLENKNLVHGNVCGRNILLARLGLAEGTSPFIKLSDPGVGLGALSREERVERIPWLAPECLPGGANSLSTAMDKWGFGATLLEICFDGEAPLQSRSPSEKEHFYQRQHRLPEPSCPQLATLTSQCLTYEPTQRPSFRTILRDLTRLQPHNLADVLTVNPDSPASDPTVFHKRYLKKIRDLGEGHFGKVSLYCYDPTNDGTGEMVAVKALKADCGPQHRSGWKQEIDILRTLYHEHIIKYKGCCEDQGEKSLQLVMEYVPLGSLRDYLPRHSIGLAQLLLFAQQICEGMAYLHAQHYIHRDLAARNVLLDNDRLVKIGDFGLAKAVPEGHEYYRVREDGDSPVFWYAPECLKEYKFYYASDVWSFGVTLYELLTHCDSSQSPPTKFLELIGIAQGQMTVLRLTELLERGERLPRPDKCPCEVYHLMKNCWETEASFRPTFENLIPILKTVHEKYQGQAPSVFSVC

Chain of Tyrosine-protein kinase JAK2 (O60674 whole entry): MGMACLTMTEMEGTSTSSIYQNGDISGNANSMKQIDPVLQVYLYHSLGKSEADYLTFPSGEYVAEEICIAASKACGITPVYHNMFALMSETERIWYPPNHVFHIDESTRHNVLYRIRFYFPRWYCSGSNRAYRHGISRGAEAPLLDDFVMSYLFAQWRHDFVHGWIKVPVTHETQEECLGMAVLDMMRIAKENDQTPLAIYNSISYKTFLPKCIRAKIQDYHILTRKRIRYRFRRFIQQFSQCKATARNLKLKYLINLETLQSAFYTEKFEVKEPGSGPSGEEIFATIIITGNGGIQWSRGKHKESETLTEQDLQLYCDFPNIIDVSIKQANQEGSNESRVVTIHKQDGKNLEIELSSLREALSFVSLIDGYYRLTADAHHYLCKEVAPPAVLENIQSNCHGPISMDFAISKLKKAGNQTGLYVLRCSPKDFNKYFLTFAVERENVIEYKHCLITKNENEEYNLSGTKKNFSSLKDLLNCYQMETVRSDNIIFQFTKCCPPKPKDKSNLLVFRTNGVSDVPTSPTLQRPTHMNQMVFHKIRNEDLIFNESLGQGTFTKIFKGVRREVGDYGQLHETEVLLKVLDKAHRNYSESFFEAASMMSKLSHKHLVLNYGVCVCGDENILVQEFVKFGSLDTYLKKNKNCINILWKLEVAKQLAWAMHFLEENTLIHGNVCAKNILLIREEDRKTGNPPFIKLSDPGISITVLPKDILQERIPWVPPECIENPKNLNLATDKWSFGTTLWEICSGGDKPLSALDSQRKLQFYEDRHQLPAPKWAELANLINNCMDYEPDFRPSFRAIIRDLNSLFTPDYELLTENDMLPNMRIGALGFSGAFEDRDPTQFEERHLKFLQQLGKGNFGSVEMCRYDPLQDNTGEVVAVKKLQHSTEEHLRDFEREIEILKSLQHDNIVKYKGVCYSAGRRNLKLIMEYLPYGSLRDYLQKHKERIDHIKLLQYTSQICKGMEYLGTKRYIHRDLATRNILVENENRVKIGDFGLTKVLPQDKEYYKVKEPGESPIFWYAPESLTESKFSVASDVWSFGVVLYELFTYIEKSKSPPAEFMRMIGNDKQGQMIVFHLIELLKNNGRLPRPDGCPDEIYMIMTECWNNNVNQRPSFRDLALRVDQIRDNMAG
Chain of Tyrosine-protein kinase JAK1 (P23458 whole entry): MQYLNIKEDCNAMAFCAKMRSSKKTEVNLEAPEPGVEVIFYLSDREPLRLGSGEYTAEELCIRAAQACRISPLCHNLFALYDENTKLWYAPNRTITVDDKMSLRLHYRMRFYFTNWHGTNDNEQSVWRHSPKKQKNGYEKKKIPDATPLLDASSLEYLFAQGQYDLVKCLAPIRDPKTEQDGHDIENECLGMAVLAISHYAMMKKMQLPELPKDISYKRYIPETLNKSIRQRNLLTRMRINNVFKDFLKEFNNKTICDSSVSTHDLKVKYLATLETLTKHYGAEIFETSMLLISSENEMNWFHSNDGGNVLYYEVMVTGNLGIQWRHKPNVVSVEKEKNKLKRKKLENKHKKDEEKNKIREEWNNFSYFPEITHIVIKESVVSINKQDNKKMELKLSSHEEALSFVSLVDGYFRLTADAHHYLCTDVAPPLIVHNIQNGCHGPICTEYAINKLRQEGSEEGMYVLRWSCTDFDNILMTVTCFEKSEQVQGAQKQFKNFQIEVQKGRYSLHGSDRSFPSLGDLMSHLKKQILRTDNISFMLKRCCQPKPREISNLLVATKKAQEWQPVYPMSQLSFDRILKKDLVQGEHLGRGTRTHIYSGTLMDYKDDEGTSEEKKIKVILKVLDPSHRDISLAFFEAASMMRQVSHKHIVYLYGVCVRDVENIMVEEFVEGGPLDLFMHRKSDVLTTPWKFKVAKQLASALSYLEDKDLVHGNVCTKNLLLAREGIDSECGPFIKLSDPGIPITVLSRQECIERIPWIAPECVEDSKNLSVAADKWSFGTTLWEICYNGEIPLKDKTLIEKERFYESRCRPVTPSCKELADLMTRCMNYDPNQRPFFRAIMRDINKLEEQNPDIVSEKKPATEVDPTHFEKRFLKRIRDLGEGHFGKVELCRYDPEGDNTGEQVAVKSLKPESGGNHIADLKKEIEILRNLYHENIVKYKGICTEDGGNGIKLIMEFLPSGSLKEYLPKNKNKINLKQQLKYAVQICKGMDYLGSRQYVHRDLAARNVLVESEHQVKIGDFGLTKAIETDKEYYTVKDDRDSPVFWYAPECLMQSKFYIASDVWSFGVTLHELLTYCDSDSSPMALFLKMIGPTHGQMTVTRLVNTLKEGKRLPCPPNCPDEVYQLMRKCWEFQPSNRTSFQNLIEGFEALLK

| Ratio IC50 (Homo sapiens [1]) | Ratio IC50 (Homo sapiens [2]) | pIC50 [3] | pIC50 [4] | pIC50 [5] | pIC50 [6] | SMILES |
| --- | --- | --- | --- | --- | --- | --- |
| 7.4 | 4.2 | – | – | – | – | O=C(Nc1nc2cccc(C3=CC[C@H](NC(=O)[C@H]4CC4(F)F)CC3)n2n1)C1CC1 |
| 7.7 | 3.3 | – | – | – | – | O=C(Nc1nc2cccc(C3CCC(NC(=O)C4CC4(F)F)CC3)n2n1)C1CC1 (stereo not drawn) |
| – | 5.7 | 6.78 | – | – | 6.03 | O=C(Nc1nc2cccc(C3=CC[C@@H](NC(=O)[C@H]4CC4(F)F)CC3)n2n1)C1CC1 |
| 2.1 | 5.4 | – | – | – | – | O=C(Nc1nc2cccc(C3=CCN(C(=O)C4(F)CC4)C3)n2n1)C1CC1 |
| – | – | 7.20 | – | < 5.00 | 6.08 | O=C(Nc1nc2cccc([C@H]3CCC4(C3)CN(C(=O)[C@@H]3CC3(F)F)C4)n2n1)C1CC1 |
| 4 | 1.3 | 7.70 | 7.10 | 5.63 | 7.59 | N#CCC(=O)N1CCC2(CCC(c3cccc4nc(NC(=O)C5CC5)nn34)CC2)CC1 |
| – | 8.4 | 6.79 | – | – | 5.86 | O=C(Nc1nc2cccc(C3=CC[C@@H](NC(=O)[C@@H]4CC4(F)F)CC3)n2n1)C1CC1 |
| 11.9 | 3.6 | – | – | – | – | O=C(Nc1nc2cccc(C3=CCC(NC(=O)C4CC4(F)F)CC3)n2n1)C1CC1 (stereo not drawn) |
| 5.4 | 2.9 | 7.27 | 6.53 | < 5.00 | 6.81 | O=C(Nc1nc2cccc(C3CCC4(CC3)CCN(C(=O)CC(F)(F)F)CC4)n2n1)C1CC1 |
| – | – | – | – | < 5.00 | – | O=C(Nc1nc2cccc(C3=CCN(C(=O)C4CC4(F)F)C3)n2n1)C1CC1 (stereo not drawn) |
| – | – | 7.19 | – | < 5.00 | 6.43 | N#CCCN1CC2(CCC(c3cccc4nc(NC(=O)C5CC5)nn34)CC2)C1 |
| – | – | 6.94 | – | < 5.00 | 6.24 | N#CCN1CC2(CCC(c3cccc4nc(NC(=O)C5CC5)nn34)CC2)C1 |
| – | – | 6.75 | – | < 5.00 | 6.39 | O=C(Nc1nc2cccc([C@@H]3CCC4(C3)CN(C(=O)[C@@H]3CC3(F)F)C4)n2n1)C1CC1 |
| 20.8 | 11.6 | 6.88 | 5.56 | < 5.00 | 5.82 | O=C(Nc1nc2cccc(C3CCC4(CC3)CCN(C(=O)CC(F)(F)F)C4)n2n1)C1CC1 (stereo not drawn) |

More lines, now with the values behind:

| SMILES | Ratio IC50 (Homo sapiens [1]) | Ratio IC50 (Homo sapiens [2]) | pIC50 [3] | pIC50 [4] | pIC50 [5] | pIC50 [6] |
| --- | --- | --- | --- | --- | --- | --- |
| O=C(Nc1nc2cccc([C@H]3CC[C@H](NC(=O)[C@H]4CC4(F)F)CC3)n2n1)C1CC1 | 23.7 | 16.9 | 6.47 | 5.09 | < 5.00 | 5.24 |
| O=C(Nc1nc2cccc([C@H]3CC[C@@H](NC(=O)[C@H]4CC4(F)F)CC3)n2n1)C1CC1 | 20 | 9.5 | 7.32 | 6.02 | < 5.00 | 6.34 |
| N#CC1(C(=O)N2CC3(CCC(c4cccc5nc(NC(=O)C6CC6)nn45)CC3)C2)CC1 | – | – | 7.82 | – | < 5.00 | 7.74 |
| CC(C)(C#N)C(=O)N1CC2(CCC(c3cccc4nc(NC(=O)C5CC5)nn34)CC2)C1 | – | – | 7.70 | – | 5.01 | 6.97 |
| O=C(Nc1nc2cccc(C3=CCC(NC(=O)C4CC4)CC3)n2n1)C1CC1 (stereo not drawn) | 9.5 | 3.3 | – | – | – | – |
| O=C(Nc1nc2cccc(C3CCC4(CC3)CCN(C(=O)[C@H]3CC3(F)F)C4)n2n1)C1CC1 (stereo partly drawn) | 10.5 | 9.2 | 7.12 | 6.10 | 5.13 | 6.16 |
| O=C(Nc1nc2cccc(C3=CC[C@H](NC(=O)[C@@H]4CC4(F)F)CC3)n2n1)C1CC1 | 11.8 | 6.5 | 7.92 | 6.85 | 5.26 | 7.11 |
| O=C(Nc1nc2cccc([C@H]3CC[C@H](NC(=O)[C@@H]4CC4(F)F)CC3)n2n1)C1CC1 | 26.3 | 9.6 | 6.74 | 5.32 | < 5.00 | 5.76 |
| N#CCC(=O)N1CCC2(CCC(c3cccc4nc(NC(=O)C5CC5)nn34)CC2)C1 (stereo not drawn) | 7.6 | 4.1 | 7.17 | 6.28 | < 5.00 | 6.56 |
| O=C(Nc1nc2cccc([C@H]3CCC4(CCN(C(=O)[C@@H]5CC5(F)F)CC4)C3)n2n1)C1CC1 | 15.8 | 13.2 | 7.20 | 6.00 | 5.03 | 6.08 |
| O=C(Nc1nc2cccc(C3=CCN(C(=O)C4CC4)CC3)n2n1)C1CC1 | 4.7 | 2 | – | – | – | – |
| O=C(Nc1nc2cccc([C@@H]3CCC4(CCN(C(=O)[C@@H]5CC5(F)F)CC4)C3)n2n1)C1CC1 | 5 | 1.5 | 6.42 | 5.72 | < 5.00 | 6.24 |
